Paper PMC3814616, “BRAF inhibitors suppress apoptosis through off-target inhibition of JNK signaling” (eLife, 2013)

Columns and labels:
MAP4K4 = target: T1, MAP4K4 (Homo sapiens, UniProt O95819); test: Quantitative competitive binding assay (KINOMEscan); conditions: for remaining binding at 0.05 µM: read-out: Percent control (50 nM); for remaining binding at 0.2 µM: read-out: Percent control (200 nM); for remaining binding at 10 µM: read-out: Percent control (10 μM)
T1 construct: purchased KINOMEscan (DiscoveRx), San Diego, CA

MAP3K15 = target: T2, MAP3K15 (Homo sapiens, UniProt Q6ZN16); test: as above; conditions: for remaining binding at 0.05 µM: read-out: Percent control (50 nM); for remaining binding at 0.2 µM: read-out: Percent control (200 nM); for remaining binding at 1 µM: read-out: Percent control (1000 nM); for remaining binding at 10 µM: read-out: Percent control (10 μM)
T2 construct: purchased KINOMEscan (DiscoveRx), San Diego, CA
T2 sequence (Q6ZN16 1-1313): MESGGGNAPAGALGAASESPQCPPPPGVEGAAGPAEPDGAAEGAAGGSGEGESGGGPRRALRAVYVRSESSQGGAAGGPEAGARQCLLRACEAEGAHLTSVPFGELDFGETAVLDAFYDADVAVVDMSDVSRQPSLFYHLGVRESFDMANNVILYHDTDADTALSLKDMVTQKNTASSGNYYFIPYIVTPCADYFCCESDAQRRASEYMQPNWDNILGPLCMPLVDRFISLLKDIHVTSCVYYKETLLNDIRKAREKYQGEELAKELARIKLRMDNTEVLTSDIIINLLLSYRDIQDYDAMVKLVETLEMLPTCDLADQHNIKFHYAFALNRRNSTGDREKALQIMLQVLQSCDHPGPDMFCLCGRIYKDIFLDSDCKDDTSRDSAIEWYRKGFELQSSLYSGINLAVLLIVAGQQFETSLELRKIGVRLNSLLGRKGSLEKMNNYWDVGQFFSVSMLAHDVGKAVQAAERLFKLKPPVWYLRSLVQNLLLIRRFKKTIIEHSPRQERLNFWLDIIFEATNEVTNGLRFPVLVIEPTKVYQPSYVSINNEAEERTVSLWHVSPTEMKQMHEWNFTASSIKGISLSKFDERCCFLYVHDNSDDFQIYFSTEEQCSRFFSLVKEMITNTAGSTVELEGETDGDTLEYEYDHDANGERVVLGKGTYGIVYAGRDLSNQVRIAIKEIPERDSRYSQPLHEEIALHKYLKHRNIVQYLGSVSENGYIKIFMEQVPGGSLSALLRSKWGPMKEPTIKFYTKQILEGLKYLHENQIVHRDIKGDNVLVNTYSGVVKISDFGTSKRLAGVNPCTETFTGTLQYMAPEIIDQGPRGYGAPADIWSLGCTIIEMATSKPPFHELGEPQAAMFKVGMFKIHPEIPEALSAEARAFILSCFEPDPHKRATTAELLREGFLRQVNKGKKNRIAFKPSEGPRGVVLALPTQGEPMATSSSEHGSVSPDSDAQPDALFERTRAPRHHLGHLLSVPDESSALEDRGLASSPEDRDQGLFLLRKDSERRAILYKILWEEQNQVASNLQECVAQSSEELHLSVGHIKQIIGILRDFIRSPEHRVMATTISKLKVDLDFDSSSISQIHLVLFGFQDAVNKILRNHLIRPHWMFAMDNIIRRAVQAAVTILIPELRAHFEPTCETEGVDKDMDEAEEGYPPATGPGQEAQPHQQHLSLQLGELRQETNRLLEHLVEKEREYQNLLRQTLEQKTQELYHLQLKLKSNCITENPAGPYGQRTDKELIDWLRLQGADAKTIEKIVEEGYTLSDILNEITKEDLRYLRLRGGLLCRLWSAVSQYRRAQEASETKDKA

HPK1 (MAP4K1) = target: T3, HPK1 (MAP4K1) (Homo sapiens, UniProt Q92918); test: as above; conditions: for remaining binding at 0.05 µM: read-out: Percent control (50 nM); for remaining binding at 0.2 µM: read-out: Percent control (200 nM); for remaining binding at 1 µM: read-out: Percent control (1000 nM); for remaining binding at 10 µM: read-out: Percent control (10 μM)
T3 construct: purchased KINOMEscan (DiscoveRx), San Diego, CA

STK39 = target: T4, STK39 (Homo sapiens, UniProt Q9UEW8); test: as above; conditions: for remaining binding at 0.05 µM: read-out: Percent control (50 nM); for remaining binding at 0.2 µM: read-out: Percent control (200 nM); for remaining binding at 1 µM: read-out: Percent control (1000 nM); for remaining binding at 10 µM: read-out: Percent control (10 μM)
T4 construct: purchased KINOMEscan (DiscoveRx), San Diego, CA

[1] = system: phospho-MKK4 and phospho-MKK7; test: Western blot, UV-induced phosphorylation of MKK4 and MKK7; conditions: cSCC cell lines, HaCaT, NHEK; 1 μM
OSR1 (OXSR1) = target: T5, OSR1 (OXSR1) (Homo sapiens, UniProt O95747); test: Quantitative competitive binding assay (KINOMEscan); conditions: for remaining binding at 0.05 µM: read-out: Percent control (50 nM); for remaining binding at 0.2 µM: read-out: Percent control (200 nM); for remaining binding at 1 µM: read-out: Percent control (1000 nM); for remaining binding at 10 µM: read-out: Percent control (10 μM)
T5 construct: purchased KINOMEscan (DiscoveRx), San Diego, CA

DLK (MAP3K12) = target: T6, DLK (MAP3K12) (Homo sapiens, UniProt Q12852); test: as above; conditions: for remaining binding at 0.05 µM: read-out: Percent control (50 nM); for remaining binding at 0.2 µM: read-out: Percent control (200 nM); for remaining binding at 1 µM: read-out: Percent control (1000 nM); for remaining binding at 10 µM: read-out: Percent control (10 μM)
T6 construct: purchased KINOMEscan (DiscoveRx), San Diego, CA

MAP4K2 = target: T7, MAP4K2 (Homo sapiens, UniProt Q12851); test: as above; conditions: for remaining binding at 0.05 µM: read-out: Percent control (50 nM); for remaining binding at 0.2 µM: read-out: Percent control (200 nM); for remaining binding at 1 µM: read-out: Percent control (1000 nM); for remaining binding at 10 µM: read-out: Percent control (10 μM)
T7 construct: purchased KINOMEscan (DiscoveRx), San Diego, CA
T7 sequence (Q12851 1-820): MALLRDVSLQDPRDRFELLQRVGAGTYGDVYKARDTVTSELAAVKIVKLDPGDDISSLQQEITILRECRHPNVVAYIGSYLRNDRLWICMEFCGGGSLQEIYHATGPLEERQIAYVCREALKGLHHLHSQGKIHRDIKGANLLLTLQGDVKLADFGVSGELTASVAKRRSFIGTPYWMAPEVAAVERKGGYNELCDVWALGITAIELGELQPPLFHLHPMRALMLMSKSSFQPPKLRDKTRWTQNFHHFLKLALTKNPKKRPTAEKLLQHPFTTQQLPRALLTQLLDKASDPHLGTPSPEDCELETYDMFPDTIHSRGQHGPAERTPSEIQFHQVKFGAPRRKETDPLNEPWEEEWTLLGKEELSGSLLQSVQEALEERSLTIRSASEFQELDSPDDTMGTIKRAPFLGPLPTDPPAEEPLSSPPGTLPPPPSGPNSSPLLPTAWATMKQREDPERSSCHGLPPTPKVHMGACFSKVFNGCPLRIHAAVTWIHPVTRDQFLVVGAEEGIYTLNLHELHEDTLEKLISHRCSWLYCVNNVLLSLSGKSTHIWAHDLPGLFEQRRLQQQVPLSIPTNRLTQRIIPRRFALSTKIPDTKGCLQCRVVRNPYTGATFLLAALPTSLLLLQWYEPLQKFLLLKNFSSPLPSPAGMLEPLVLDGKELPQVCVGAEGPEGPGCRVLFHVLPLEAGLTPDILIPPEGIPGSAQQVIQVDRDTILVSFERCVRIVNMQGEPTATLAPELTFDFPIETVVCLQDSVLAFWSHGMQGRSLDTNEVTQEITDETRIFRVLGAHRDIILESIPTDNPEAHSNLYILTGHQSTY

TNIK = target: T8, TNIK (Homo sapiens, UniProt Q9UKE5); test: as above; conditions: for remaining binding at 0.05 µM: read-out: Percent control (50 nM); for remaining binding at 0.2 µM: read-out: Percent control (200 nM); for remaining binding at 1 µM: read-out: Percent control (1000 nM); for remaining binding at 10 µM: read-out: Percent control (10 μM)
T8 construct: purchased KINOMEscan (DiscoveRx), San Diego, CA
T8 sequence (Q9UKE5 whole entry): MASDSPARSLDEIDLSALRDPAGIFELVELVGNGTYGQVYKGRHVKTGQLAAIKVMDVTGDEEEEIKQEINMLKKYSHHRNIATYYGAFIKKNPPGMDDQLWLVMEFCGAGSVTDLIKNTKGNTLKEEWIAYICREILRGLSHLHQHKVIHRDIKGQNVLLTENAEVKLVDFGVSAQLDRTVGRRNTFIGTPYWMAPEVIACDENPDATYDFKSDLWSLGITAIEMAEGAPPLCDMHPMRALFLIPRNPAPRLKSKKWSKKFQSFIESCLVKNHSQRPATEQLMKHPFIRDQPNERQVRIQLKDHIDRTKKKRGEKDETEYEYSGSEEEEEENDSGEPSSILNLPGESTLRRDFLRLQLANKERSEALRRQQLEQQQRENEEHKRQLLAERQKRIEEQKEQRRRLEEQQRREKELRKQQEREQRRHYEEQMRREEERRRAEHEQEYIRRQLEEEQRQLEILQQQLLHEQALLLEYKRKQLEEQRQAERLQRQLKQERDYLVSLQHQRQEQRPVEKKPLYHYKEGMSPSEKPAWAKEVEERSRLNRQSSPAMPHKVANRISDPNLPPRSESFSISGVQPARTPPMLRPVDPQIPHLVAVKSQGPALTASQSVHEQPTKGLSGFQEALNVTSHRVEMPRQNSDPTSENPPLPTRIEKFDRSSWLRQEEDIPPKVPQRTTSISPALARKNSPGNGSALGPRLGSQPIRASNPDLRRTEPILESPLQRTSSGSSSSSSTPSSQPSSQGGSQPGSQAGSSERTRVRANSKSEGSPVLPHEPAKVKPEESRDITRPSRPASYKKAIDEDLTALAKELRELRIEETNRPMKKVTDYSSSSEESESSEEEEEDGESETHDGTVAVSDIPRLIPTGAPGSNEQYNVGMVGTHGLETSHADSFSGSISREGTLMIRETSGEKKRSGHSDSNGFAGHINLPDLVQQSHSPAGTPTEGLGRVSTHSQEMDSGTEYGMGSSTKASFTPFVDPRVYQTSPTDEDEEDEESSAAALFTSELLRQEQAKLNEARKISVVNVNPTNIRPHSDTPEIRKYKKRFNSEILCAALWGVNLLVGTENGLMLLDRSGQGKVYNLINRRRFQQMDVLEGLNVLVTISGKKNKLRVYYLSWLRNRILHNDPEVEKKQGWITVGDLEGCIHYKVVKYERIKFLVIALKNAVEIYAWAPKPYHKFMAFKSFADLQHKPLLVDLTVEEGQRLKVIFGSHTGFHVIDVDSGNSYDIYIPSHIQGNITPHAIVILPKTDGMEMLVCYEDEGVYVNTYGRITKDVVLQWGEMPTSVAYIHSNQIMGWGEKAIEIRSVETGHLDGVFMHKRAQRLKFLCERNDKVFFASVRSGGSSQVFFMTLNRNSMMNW

T5 sequence (O95747 whole entry): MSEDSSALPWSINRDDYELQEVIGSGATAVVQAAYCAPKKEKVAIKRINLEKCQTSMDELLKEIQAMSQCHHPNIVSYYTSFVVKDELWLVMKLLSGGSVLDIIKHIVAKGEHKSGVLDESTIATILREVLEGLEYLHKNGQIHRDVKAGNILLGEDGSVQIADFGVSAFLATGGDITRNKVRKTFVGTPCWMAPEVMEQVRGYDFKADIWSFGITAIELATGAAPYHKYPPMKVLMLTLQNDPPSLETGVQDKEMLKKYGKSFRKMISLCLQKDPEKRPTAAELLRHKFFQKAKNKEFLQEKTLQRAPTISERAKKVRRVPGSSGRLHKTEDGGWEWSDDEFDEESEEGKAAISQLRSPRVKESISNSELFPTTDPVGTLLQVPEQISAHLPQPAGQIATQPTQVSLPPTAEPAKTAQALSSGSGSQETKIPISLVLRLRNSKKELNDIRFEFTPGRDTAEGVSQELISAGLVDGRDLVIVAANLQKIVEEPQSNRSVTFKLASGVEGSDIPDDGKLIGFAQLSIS
T6 sequence (Q12852 whole entry): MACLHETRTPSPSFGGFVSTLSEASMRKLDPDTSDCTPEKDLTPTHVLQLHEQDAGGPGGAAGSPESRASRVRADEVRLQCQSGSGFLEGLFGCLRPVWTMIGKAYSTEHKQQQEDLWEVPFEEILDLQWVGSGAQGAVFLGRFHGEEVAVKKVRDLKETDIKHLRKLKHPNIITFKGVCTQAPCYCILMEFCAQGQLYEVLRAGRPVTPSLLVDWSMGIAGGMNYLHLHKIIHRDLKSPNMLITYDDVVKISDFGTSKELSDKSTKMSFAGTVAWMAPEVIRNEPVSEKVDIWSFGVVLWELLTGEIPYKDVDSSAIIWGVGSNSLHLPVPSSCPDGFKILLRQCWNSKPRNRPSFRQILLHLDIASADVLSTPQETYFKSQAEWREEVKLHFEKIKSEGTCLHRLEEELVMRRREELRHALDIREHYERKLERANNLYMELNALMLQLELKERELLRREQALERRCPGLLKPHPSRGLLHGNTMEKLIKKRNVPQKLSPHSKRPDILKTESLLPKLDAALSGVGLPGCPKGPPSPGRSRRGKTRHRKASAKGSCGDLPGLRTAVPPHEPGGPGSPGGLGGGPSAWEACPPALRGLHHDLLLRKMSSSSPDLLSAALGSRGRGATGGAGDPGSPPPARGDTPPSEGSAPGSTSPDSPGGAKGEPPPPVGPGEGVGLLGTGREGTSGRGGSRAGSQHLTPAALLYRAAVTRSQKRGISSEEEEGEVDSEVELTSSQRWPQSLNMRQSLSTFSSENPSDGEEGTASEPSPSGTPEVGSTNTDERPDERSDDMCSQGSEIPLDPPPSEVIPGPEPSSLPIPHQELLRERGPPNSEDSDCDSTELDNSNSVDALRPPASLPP
T1 sequence (O95819 whole entry): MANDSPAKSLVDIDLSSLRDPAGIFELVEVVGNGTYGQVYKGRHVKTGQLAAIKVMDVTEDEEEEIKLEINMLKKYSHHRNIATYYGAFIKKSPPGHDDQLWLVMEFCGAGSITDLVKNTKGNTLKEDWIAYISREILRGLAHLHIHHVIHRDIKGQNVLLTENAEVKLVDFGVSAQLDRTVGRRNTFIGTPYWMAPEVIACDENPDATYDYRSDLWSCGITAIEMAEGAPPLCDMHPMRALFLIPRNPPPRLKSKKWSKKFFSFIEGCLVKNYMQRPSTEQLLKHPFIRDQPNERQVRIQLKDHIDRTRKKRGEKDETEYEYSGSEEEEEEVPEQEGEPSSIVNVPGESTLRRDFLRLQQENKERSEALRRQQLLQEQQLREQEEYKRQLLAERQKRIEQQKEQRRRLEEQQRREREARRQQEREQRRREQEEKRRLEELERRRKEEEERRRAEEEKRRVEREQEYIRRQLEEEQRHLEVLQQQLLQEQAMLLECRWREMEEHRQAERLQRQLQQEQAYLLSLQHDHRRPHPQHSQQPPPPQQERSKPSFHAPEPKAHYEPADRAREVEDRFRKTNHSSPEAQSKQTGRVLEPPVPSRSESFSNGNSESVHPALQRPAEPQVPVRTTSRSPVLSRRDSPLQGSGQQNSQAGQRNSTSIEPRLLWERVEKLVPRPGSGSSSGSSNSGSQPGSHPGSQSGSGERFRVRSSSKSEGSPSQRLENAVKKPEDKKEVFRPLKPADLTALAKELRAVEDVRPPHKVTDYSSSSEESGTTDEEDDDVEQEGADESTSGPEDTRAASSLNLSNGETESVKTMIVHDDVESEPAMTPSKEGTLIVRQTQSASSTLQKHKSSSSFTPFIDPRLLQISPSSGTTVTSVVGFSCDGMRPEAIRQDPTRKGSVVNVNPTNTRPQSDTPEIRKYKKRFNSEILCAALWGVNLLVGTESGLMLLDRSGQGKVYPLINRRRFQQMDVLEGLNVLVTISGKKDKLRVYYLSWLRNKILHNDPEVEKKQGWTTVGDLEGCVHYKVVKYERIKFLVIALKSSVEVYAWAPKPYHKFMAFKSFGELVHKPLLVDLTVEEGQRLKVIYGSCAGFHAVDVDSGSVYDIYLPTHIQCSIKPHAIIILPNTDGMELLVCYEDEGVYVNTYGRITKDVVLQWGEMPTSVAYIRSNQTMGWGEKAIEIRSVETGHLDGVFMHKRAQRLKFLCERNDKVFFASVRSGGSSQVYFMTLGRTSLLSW
T3 sequence (Q92918 whole entry): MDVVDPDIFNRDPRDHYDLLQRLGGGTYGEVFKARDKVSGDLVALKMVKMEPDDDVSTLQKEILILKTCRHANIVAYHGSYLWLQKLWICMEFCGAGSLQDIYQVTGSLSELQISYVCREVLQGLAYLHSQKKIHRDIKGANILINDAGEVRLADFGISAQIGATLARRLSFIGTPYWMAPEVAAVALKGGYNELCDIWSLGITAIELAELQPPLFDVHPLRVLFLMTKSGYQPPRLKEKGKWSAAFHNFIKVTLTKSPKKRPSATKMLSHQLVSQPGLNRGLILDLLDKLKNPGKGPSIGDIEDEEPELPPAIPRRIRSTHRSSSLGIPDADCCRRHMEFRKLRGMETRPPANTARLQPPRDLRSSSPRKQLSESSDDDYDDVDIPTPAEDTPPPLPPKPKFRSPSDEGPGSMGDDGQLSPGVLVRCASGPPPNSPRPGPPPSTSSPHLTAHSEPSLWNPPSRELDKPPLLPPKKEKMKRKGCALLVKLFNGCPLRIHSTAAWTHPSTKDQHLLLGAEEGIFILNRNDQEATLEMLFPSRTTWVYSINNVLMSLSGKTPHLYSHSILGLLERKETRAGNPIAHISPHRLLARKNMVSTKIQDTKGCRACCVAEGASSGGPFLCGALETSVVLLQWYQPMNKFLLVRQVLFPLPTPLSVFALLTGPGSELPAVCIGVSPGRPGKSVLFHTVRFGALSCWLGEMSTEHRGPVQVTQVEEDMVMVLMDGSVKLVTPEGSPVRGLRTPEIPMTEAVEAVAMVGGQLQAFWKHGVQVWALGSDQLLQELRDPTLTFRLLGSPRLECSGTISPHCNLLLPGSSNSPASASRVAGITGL

SMILES | remaining binding at 0.05 µM (MAP4K4) | remaining binding at 0.2 µM (MAP4K4) | remaining binding at 10 µM (MAP4K4) | remaining binding at 0.05 µM (MAP3K15) | remaining binding at 0.2 µM (MAP3K15) | remaining binding at 1 µM (MAP3K15) | remaining binding at 10 µM (MAP3K15) | remaining binding at 0.05 µM (HPK1 (MAP4K1)) | remaining binding at 0.2 µM (HPK1 (MAP4K1)) | remaining binding at 1 µM (HPK1 (MAP4K1)) | remaining binding at 10 µM (HPK1 (MAP4K1)) | remaining binding at 0.05 µM (STK39) | remaining binding at 0.2 µM (STK39) | remaining binding at 1 µM (STK39) | remaining binding at 10 µM (STK39) | UV-induced phosphorylation of MKK4 and MKK7 [1] | remaining binding at 0.05 µM (OSR1 (OXSR1)) | remaining binding at 0.2 µM (OSR1 (OXSR1)) | remaining binding at 1 µM (OSR1 (OXSR1)) | remaining binding at 10 µM (OSR1 (OXSR1)) | other results
CCCS(=O)(=O)Nc1ccc(F)c(C(=O)c2c[nH]c3ncc(Cl)cc23)c1F [PLX4720] | 92% | 99% | 46% | 94% | 97% | 91% | 59% | 100% | 100% | 100% | 47% | 100% | 100% | 100% | 59% | inhibited | 100% | 94% | 95% | 42% | remaining binding at 1 µM (MAP4K4; read-out: Percent control (1000 nM)): 100%; remaining binding at 0.05 µM (DLK (MAP3K12)): 95%; remaining binding at 0.2 µM (DLK (MAP3K12)): 98%; remaining binding at 1 µM (DLK (MAP3K12)): 100%; remaining binding at 10 µM (DLK (MAP3K12)): 92%; remaining binding at 0.05 µM (MAP4K2): 98%; remaining binding at 0.2 µM (MAP4K2): 100%; remaining binding at 1 µM (MAP4K2): 99%; remaining binding at 10 µM (MAP4K2): 67%; remaining binding at 0.05 µM (TNIK): 97%; remaining binding at 0.2 µM (TNIK): 89%; remaining binding at 1 µM (TNIK): 79%; remaining binding at 10 µM (TNIK): 24%
CCCS(=O)(=O)Nc1ccc(F)c(C(=O)c2c[nH]c3ncc(-c4ccc(Cl)cc4)cc23)c1F [vemurafenib] | 96% | 92% | 23% | 84% | 100% | 84% | 91% | 95% | 88% | 67% | 15% | 100% | 100% | 97% | 66% | suppressed | 100% | 100% | 89% | 98% | IC50 (MAP4K4; estimated Kd, averaged pointwise estimates, transformed Hill equation, read-out: Calculated estimate of IC50): 2840 nM; remaining binding at 0.05 µM (DLK (MAP3K12)): 98%; remaining binding at 0.2 µM (DLK (MAP3K12)): 97%; remaining binding at 1 µM (DLK (MAP3K12)): 66%; remaining binding at 10 µM (DLK (MAP3K12)): 92%; remaining binding at 0.05 µM (MAP4K2): 99%; remaining binding at 0.2 µM (MAP4K2): 82%; remaining binding at 1 µM (MAP4K2): 95%; remaining binding at 10 µM (MAP4K2): 46%; remaining binding at 0.05 µM (TNIK): 95%; remaining binding at 0.2 µM (TNIK): 94%; remaining binding at 1 µM (TNIK): 66%; remaining binding at 10 µM (TNIK): 11%
